Reference: the METLIN SMRT retention time set (Domingo-Almenara et al. 2019)

Assay: gradient 5% acetonitrile 3 min, to 50% in 2 min, to 85% in 15 min, held 3 min, 100 µL/min
Details: column: Zorbax Extend-C18 2.1 x 50 mm; eluents: water / acetonitrile, 0.1% formic acid
Summary of the method: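 Data were gathered over 3 months by HPLC coupled to a quadrupole time-of-flight mass spectrometer, operated in positive and negative ionization mode. Mixtures of ~100 pure standards ran on a Zorbax Extend-C18 column (2.1 × 50 mm, 1.8 μm) at 100 μL/min, with water and acetonitrile each containing 0.1% formic acid and dead and dwell volumes of 40 μL and 900 μL. Retention time was read from adduct peaks picked by computer and checked manually.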

`COc1ccccc1-c1noc(C2CCCN2C(=O)Nc2cccc(C)c2C)n1` (configuration not stated) gave an RP-LC retention time of 858 s.
In the case of `Cc1ccc(C(=O)Nc2ccc(-c3nc(Cn4cccn4)c(C)o3)cc2)s1`, the RP-LC retention time is reported as 890 s.
With `COC[C@@H]1CN(Cc2ccc3[nH]ccc3c2)C[C@H]1c1ccncc1` the RP-LC retention time was 581 s.
Work on `CN1CCn2cc(S(=O)(=O)Nc3cccc(C#N)c3)cc2C1=O` yielded an RP-LC retention time of 662 s.
Work on `Cc1ccc(CNC(=O)C2CCCN(c3cnc4nccnc4c3)C2)o1` (configuration not stated) yielded an RP-LC retention time of 772 s.
For `O=C(Cc1nnc(-c2cccc(F)c2)o1)NCC1CC1`, the RP-LC retention time was 722 s.
Compound `Cc1c(C(=O)NCc2ccc(OC(C)C)cc2)cc(-c2ccccc2)n1C` has an RP-LC retention time of 1080 s.
Compound `CC1=C(c2cccc(Cl)c2)S(=O)(=O)N=C1N1CCC(NC(=O)c2ccoc2)CC1` has an RP-LC retention time of 799 s.
For `Cc1ccccc1Nc1c(-c2ccc(Cl)cc2)nc2cnccn12`, the RP-LC retention time was 1030 s.
Work on `O=C(CCn1c(N2CCCCC2)nc2ccsc2c1=O)N1CCN(c2ccccn2)CC1` yielded an RP-LC retention time of 629 s.
With `COc1ccc(NC(=O)C2CC(=O)N(CCc3c[nH]c4ccc(F)cc34)C2)c(OC)c1` (configuration not stated) the RP-LC retention time was 793 s.
For `O=C(Cc1cccc(C(F)(F)F)c1)N1CCN(c2nnc3ccccn23)CC1`, the RP-LC retention time was 702 s.
In the case of `CCOc1ccccc1CN1CCc2nc(Nc3ccc(F)cc3)ncc2C1`, the RP-LC retention time is reported as 616 s.
For `Cc1[nH]c(C(=O)N2CCN(c3cccc(Cl)c3)CC2)c(C)c1S(=O)(=O)N1CCC(C)CC1`, the RP-LC retention time was 1090 s.
Compound `CSc1ccc(CNC(=O)C2CCN(Cc3cn(C)c4ccc(Cl)cc34)CC2)cc1` has an RP-LC retention time of 766 s.
Work on `COc1cccc(NC(=O)c2cn(CC3CCCO3)cc3c(=O)n(-c4ccccc4)nc2-3)c1` (configuration not stated) yielded an RP-LC retention time of 997 s.
For `O=C(NCC1CCN(Cc2ccccc2)CC1)C(=O)Nc1ccc(OC(F)(F)F)cc1`, the RP-LC retention time was 626 s.
`CN(CC1CCOC1)C(=O)Nc1cccc(F)c1` (configuration not stated) gave an RP-LC retention time of 660 s.
Compound `CCOc1ccc(C2C(C(=O)OCCOC)=C(C)NC3=C2C(=O)CCC3)cc1OC` (configuration not stated) has an RP-LC retention time of 700 s.
`Cc1cccc(-c2noc(CN3N=NC4C(=O)N(c5ccccc5)C(=O)C43)n2)c1` (configuration not stated) gave an RP-LC retention time of 989 s.
`Cc1nc(C2(C)CCN(S(=O)(=O)c3ccc(F)c(C)c3)CC2)no1` gave an RP-LC retention time of 927 s.
`Cc1nc2c(nc1C)C(=O)c1ccccc1C2=O` gave an RP-LC retention time of 655 s.
Compound `CCS(=O)(=O)N1CC(F)(F)C[C@H]1c1nnc(-c2ccccc2)o1` has an RP-LC retention time of 824 s.
Work on `COc1ccc(C(=O)Nc2ccc3c(c2)Sc2ncccc2C(=O)N3C)cn1` yielded an RP-LC retention time of 710 s.
In the case of `CCOC(=O)c1ccccc1NC(=O)Cn1nc2ccc(-c3ccc(Cl)cc3)nn2c1=O`, the RP-LC retention time is reported as 989 s.
`Cc1cc(C)nc(SCc2cc(=O)c(OC(=O)c3cccc([N+](=O)[O-])c3C)co2)n1` showed an RP-LC retention time of 883 s.
`CCOc1cc2c(cc1OCC)C1C(C(=O)NCCCOC)c3ccccc3C(=O)N1CC2` (configuration not stated) gave an RP-LC retention time of 744 s.
For `Cc1n[nH]c(C)c1CCC(=O)NCc1c(F)cccc1F`, the RP-LC retention time was 526 s.
With `Cc1cc(C)c(-c2csc(NC(=O)c3ccccc3[N+](=O)[O-])n2)c(C)c1` the RP-LC retention time was 1070 s.
`CSc1ccc(CN2CC(c3nc(C)no3)C2)cc1` gave an RP-LC retention time of 530 s.
With `COc1ccc(S(=O)(=O)Nc2ccc(-c3cn4ccc(C)nc4n3)cc2)cc1OC` the RP-LC retention time was 627 s.
`O=C(Nc1cc(-c2ccccn2)no1)c1ccc(Cl)cc1` gave an RP-LC retention time of 864 s.
With `CCn1c(=O)c2ccccc2n(Cc2nc(-c3ccc(F)c(Br)c3)no2)c1=O` the RP-LC retention time was 1120 s.
Work on `Cc1nn(-c2ccccc2)c(C)c1S(=O)(=O)N1CCC(C(=O)Nc2cc(F)ccc2F)CC1` yielded an RP-LC retention time of 1000 s.
Work on `Clc1ccc(-c2ccc(CNCc3ccccn3)o2)cc1` yielded an RP-LC retention time of 689 s.
`NC(=O)c1cc(N2CCCC2)nc2c(Cl)cccc12` gave an RP-LC retention time of 607 s.
`CCOc1ccc(CNC(=O)C2CCN(S(=O)(=O)c3ccc4c(c3)NC(=O)CO4)CC2)cc1` showed an RP-LC retention time of 880 s.
With `O=C(NC1CC(=O)N(Cc2ccccc2)C1)c1cnccn1` (configuration not stated) the RP-LC retention time was 632 s.
`COc1ccc(CNC(=O)C2(C)Cn3nc(C)cc3C(=O)N2c2ccc(F)cc2)cc1` (configuration not stated) showed an RP-LC retention time of 764 s.
Work on `CCOc1ccc(S(=O)(=O)NCCn2nc(C)cc2C)cc1F` yielded an RP-LC retention time of 731 s.
With `Cc1cc(C)n(-c2ccc(C(=O)NC3CCCCC3)cn2)n1` the RP-LC retention time was 918 s.
`Cc1nnc(C2CCCCCN2C(=O)CCc2c(C)nn(C)c2C)o1` (configuration not stated) showed an RP-LC retention time of 608 s.
In the case of `C[C@H]1CN(C(=O)c2cc(Cl)ccc2F)C[C@@H]1c1nc(-c2ccncc2)no1`, the RP-LC retention time is reported as 857 s.
In the case of `NCCc1noc(-c2ccccc2)n1`, the RP-LC retention time is reported as 580 s.
`Cc1ccc2ncn(C3CCN(S(=O)(=O)c4ccc(C)c(C)c4)CC3)c(=O)c2c1` showed an RP-LC retention time of 998 s.
With `Cc1cc2nn(CC(=O)Nc3ccc(F)c(F)c3)c(=O)n2c(Nc2ccccc2)n1` the RP-LC retention time was 967 s.
Work on `Cc1cccc(Cn2nc3ccc(S(=O)(=O)N4CCOCC4)cn3c2=O)c1` yielded an RP-LC retention time of 826 s.
Work on `CN1CCN(c2ncc3c(n2)CC(c2ccc(Cl)cc2)CC3=O)CC1` (configuration not stated) yielded an RP-LC retention time of 674 s.
`CCCn1cc(S(=O)(=O)Nc2ccc(F)c(F)c2)c2cccnc21` gave an RP-LC retention time of 898 s.
In the case of `O=C(Nc1ccccc1Br)c1cnc(-c2ccccc2)nc1-c1ccncc1`, the RP-LC retention time is reported as 927 s.
`COCCCNCc1ccc(-c2ccccc2Cl)o1` gave an RP-LC retention time of 672 s.
For `CS(=O)(=O)N1CCCc2cc(C(=O)NCCCN3CCOCC3)ccc21`, the RP-LC retention time was 585 s.
With `Cc1cc(C)c(S(=O)(=O)N2CCC(n3cnc4c(C)cccc4c3=O)CC2)cc1C` the RP-LC retention time was 1120 s.
`COc1ccc(-c2nc(-c3ccc(-c4ccc(Cl)cc4)o3)[nH]c2-c2ccc(OC)cc2)cc1` gave an RP-LC retention time of 988 s.
In the case of `CCOc1nc2ccccc2nc1N1CCCC(C(=O)Nc2ccc(Cl)cc2)C1` (configuration not stated), the RP-LC retention time is reported as 1300 s.
Compound `Cc1cc2c(cc1NC(=O)c1cccs1)n(C)c(=O)n2C` has an RP-LC retention time of 668 s.
Work on `CN1C(=O)c2cccnc2Sc2cc(C(=O)NC3CCCC3)ccc21` yielded an RP-LC retention time of 726 s.
For `CC(=O)N1CCC(C(=O)NCc2ccc(-c3nc(-c4ccc(F)cc4)no3)s2)CC1`, the RP-LC retention time was 786 s.
In the case of `O=C(Cn1nc2c3ccccc3ncn2c1=O)Nc1ccc(Cl)cc1`, the RP-LC retention time is reported as 727 s.
Compound `CN1C(=O)c2cccnc2Sc2cc(NC(=O)c3ccncc3)ccc21` has an RP-LC retention time of 606 s.
For `O=C(C1CCCN(c2ncnc3c2nc2n3CCCCC2)C1)N1CCC(Cc2ccccc2)CC1` (configuration not stated), the RP-LC retention time was 1000 s.
Work on `O=C(Cn1cnc2c(-c3ccc(Cl)cc3)csc2c1=O)N1CCCC1` yielded an RP-LC retention time of 838 s.
`Cc1cccc(N2CCN(c3ccc(SCC(=O)Nc4cccc(F)c4)nn3)CC2)c1` showed an RP-LC retention time of 896 s.
`Cc1cccc(N2CCN(C(=O)C3CCN(S(=O)(=O)c4cn(C(C)C)cn4)CC3)CC2)c1C` gave an RP-LC retention time of 929 s.
With `CC(Oc1ccc(-c2cnc3ccccc3n2)cc1)C(=O)N1CCN(c2ncccn2)CC1` (configuration not stated) the RP-LC retention time was 872 s.
Work on `Cc1cccc2c(C(N)=O)c3c(nc12)CCC3` yielded an RP-LC retention time of 560 s.
`CNC(=O)C1CCCN1C(=O)Nc1cccc(C)c1` (configuration not stated) gave an RP-LC retention time of 635 s.
